Results from the NIST ThermoML archive (doi:10.1007/s10765-009-0566-6).

Assay: osmotic coefficient (dimensionless); mn = molality of the nth substance listed, in mol/kg
Conditions: Liquid, vapor pressure osmometry

CCCCCn1cc[n+](C)c1.[Cl-] [1-methyl-3-pentylimidazolium chloride] + O
osmotic coefficient
Conditions	298.15 K	308.15 K	318.15 K	328.15 K
m1 = 0.014	0.931	0.938	0.941	0.949
m1 = 0.0263	0.889	0.905	0.911	0.923
m1 = 0.0391	0.882	0.887	0.903	0.908
m1 = 0.0518	0.871	0.878	0.885	0.897
m1 = 0.0634	0.863	0.868	0.878	0.886
m1 = 0.084	0.852	0.858	0.865	0.87
m1 = 0.1007	0.841	0.845	0.854	0.866
m1 = 0.1369	0.821	0.829	0.845	0.849
m1 = 0.1784	0.805	0.812	0.831	0.837
m1 = 0.2198	0.797	0.803	0.822	0.828
m1 = 0.2765	0.79	0.795	0.803	0.809
m1 = 0.3517	0.781	0.788	0.794	0.799
m1 = 0.4043	0.768	0.78	0.784	0.79
m1 = 0.5014	0.75	0.753	0.76	0.771
m1 = 0.5758	0.735	0.742	0.748	0.756
m1 = 0.8464	0.722	0.726	0.735	0.739
m1 = 1.002	0.71	0.715	0.723	0.73
m1 = 1.376	0.697	0.704	0.711	0.718
m1 = 1.797	0.687	0.691	0.697	0.704
